Assay results published in US20230059124A1, “Novel TAS2R38 Bitter Taste Receptor Agonist” (priority 2021, published 2023).

What was measured:
TAS2R38 gene [1] = experiment: qPCR TAS2R38 gene expression in hTBEC 1 culture; type: cell-based, human; details: for Tas2R38 3prime 2^-ddct / Tas2R38 5prime 2^-ddct / Tas2R38C DS 2^-ddct / Tas2R38 3prime ddCT / Tas2R38 5prime ddCT / Tas2R38C DS ddCT: 1 μM; for Tas2R38 3prime 2^-ddct / Tas2R38 5prime 2^-ddct / Tas2R38C DS 2^-ddct: control = 1.000
From the text: (§1) Currently, very little is known about compounds that directly agonize and regulate TAS2R38 expression. Because of this, research related to the prenylflavonoid xanthohumol's effects on gene expression was compared with other TAS2R38 targeting compounds, namely sinigrin, a glucosinolate connected to the family of glucosides found in the Brassicaceae vegetable family and found in foods such as brussels sprouts and broccoli. […] selectively triggers the taster variant of the TAS2R38 receptor (Meyerhof, W. et al. The Molecular Receptive Ranges of Human TAS2R Bitter Taste Receptors. Chem Sense (2010) 35: 157-70.) […] was used as a comparator at a concentration of 1 the same concentration as xanthohumol (1 μM). Two hTBEC cultures were selected for this initial study. hTBEC 1 is derived from one of the most bitter-responsive cultures, which has a moderate/moderately low basal gene expression level of TAS2R38. hTBEC 2 is derived from a culture that responds to bitter stimuli, but has a high response in particular to TAS2R38 expression compared with other hTBEC repositories. RNA was harvested from cultures treated cultures and control cultures at 1 μM lead compound at 24 and 48 hours post treatment. Following is a table that explains the experimental paradigm in full: [table] In an effort to establishing a comprehensive understanding of xanthohumol's effects on gene expression, 3 unique primer pairs to accurately capture the TAS2R38 gene were developed as cultures. […] The published NCBI genetic sequence for the region of chromosome 7q that encodes TAS2R38 and overlay map the SNP variant markers to ensure the primers cover strategic regions of the TAS2R38 gene. For probing TAS2R38, 3 individual primer pairs were used for a comprehensive view of how the compound may be “hitting” the gene.

TAS2R38 gene [2] = experiment: qPCR TAS2R38 gene expression in hTBEC 2 culture; type: cell-based, human; details: 1 μM; for Tas2R38 3prime 2^-ddct / Tas2R38 5prime 2^-ddct / Tas2R38C DS 2^-ddct: control = 1.000
From the text: as §1

TAS2R38 gene [3] = experiment: DNA microarray gene expression, MatTek full thickness tissue (EFT-200); type: cell-based, Homo sapiens; details: 0.05 ml solubilized xanthohumol liquid formulation 5 mg/ml, 48 hours; ratio >=1.3 = up-regulated
From the text: The testing model used in this study is the MatTek full thickness tissue (EFT-200). This skin model consists of normal human-derived epidermal keratinocytes that have been cultured to form a multilayered, highly differentiated model of the human epidermis and human fibroblasts that have been seeded into a collagen matrix to form the dermis. This model also introduces a well-defined basement membrane between the epidermal and dermal layers, which is essential to enable in vivo like interactions between the keratinocytes and the fibroblasts.
Upon arrival, the MatTek ET-200 tissue was stored at 4° C. until used (they can be stored for up to 72 hours however tissue viability may decrease with prolonged storage). Prior to use, the tissues to be used were removed from the agarose-shipping tray and placed into a 6-well plate containing 2.0 ml of assay medium (37±2° C.). All of the agarose must be removed from the outside of the tissue culture insert since any residual agarose may prevent the assay medium from reaching the tissue. […]
At the end of the incubation any residual test material was removed from the tissues by rinsing them twice with at least 100 μl of PBS. […] These broader ranges are a more conservative judging criterion and account for possible sources of variation in fluorescence intensity that are not associated with the treatment. […]

[4] = hTBEC 1, 24 hour, vs control 24
[5] = hTBEC 1, 48 hour, vs control 48 hour
[6] = hTBEC 2, 24 hour, vs control 24
[7] = hTBEC 2, 48 hour, vs control 48 hour

SMILES	Tas2R38 3prime 2^-ddct (TAS2R38 gene [1]; hTBEC 1, 24 hour)	Tas2R38 5prime 2^-ddct (TAS2R38 gene [1]; hTBEC 1, 24 hour)	Tas2R38C DS 2^-ddct (TAS2R38 gene [1]; hTBEC 1, 24 hour)	Tas2R38 3prime ddCT (TAS2R38 gene [1]; [4])	Tas2R38 5prime ddCT (TAS2R38 gene [1]; [4])	Tas2R38C DS ddCT (TAS2R38 gene [1]; [4])	Tas2R38 3prime 2^-ddct (TAS2R38 gene [1]; hTBEC 1, 48 hour)	Tas2R38 5prime 2^-ddct (TAS2R38 gene [1]; hTBEC 1, 48 hour)	Tas2R38C DS 2^-ddct (TAS2R38 gene [1]; hTBEC 1, 48 hour)	Tas2R38 3prime ddCT (TAS2R38 gene [1]; [5])	Tas2R38 5prime ddCT (TAS2R38 gene [1]; [5])	Tas2R38C DS ddCT (TAS2R38 gene [1]; [5])	Tas2R38 3prime 2^-ddct (TAS2R38 gene [2]; hTBEC 2, 24 hour)	Tas2R38 5prime 2^-ddct (TAS2R38 gene [2]; hTBEC 2, 24 hour)	Tas2R38C DS 2^-ddct (TAS2R38 gene [2]; hTBEC 2, 24 hour)	Tas2R38 3prime ddCT (TAS2R38 gene [2]; [6])	Tas2R38 5prime ddCT (TAS2R38 gene [2]; [6])	Tas2R38C DS ddCT (TAS2R38 gene [2]; [6])	Tas2R38 3prime 2^-ddct (TAS2R38 gene [2]; hTBEC 2, 48 hour)	Tas2R38 5prime 2^-ddct (TAS2R38 gene [2]; hTBEC 2, 48 hour)	other results
C=CCC(=NOS(=O)(=O)O)S[C@@H]1O[C@H](CO)[C@@H](O)[C@H](O)[C@H]1O (stereo in doubt) [sinigrin, reference compound]	0.988	1.142	1.023	0.017	−0.192	−0.033	0.983	1.027	1.716	0.025	−0.038	−0.779	0.600	0.553	0.657	0.736	0.616	0.605	1.436	1.317	Tas2R38C DS 2^-ddct (TAS2R38 gene [2]; hTBEC 2, 48 hour): 0.625; Tas2R38 3prime ddCT (TAS2R38 gene [2]; [7]): −0.524; Tas2R38 5prime ddCT (TAS2R38 gene [2]; [7]): −0.397; Tas2R38C DS ddCT (TAS2R38 gene [2]; [7]): 0.677
COc1cc(O)c(CC=C(C)C)c(O)c1C(=O)/C=C/c1ccc(O)cc1 [xanthohumol]	2.024	3.983	2.785	−1.017	−1.994	−1.478	0.664	1.368	4.109	0.591	−0.452	−2.039	2.013	2.609	1.779	−1.009	−1.383	−0.831	0.995	0.624	Ratio of Medians, TAS2R38 (NM_176817) up-regulation (TAS2R38 gene [3]): 21; up regulation of the TAS2R38 gene, higher than baseline or the Sinigrin control (TAS2R38 gene [1]; FIG. 1, 1 μM, within 24 hours, culture not stated): approximately 4 ×; Tas2R38C DS 2^-ddct (TAS2R38 gene [2]; hTBEC 2, 48 hour): 4.175; Tas2R38 3prime ddCT (TAS2R38 gene [2]; [7]): 0.007; Tas2R38 5prime ddCT (TAS2R38 gene [2]; [7]): 0.679; Tas2R38C DS ddCT (TAS2R38 gene [2]; [7]): −2.062
